Like-named read-outs stand apart in the source and are kept apart here. Marks after values point to notes of the source that are not given here.
CCOC(=O)C(C#N)=C(NC(C)C(C)(C)C)c1cccnc1Cl (centres unmarked) [Compound 924]
Log P (pH 2.7): 3.6^[a]

CCOC(=O)C(C#N)=C(NC(C)CCCC(C)C)c1cn(C)nc1C(F)F (centres unmarked) [Compound 925]
Log P (pH 2.7): 4.26^[a]

CCOC(=O)C(C#N)=C(NC(C)CCCC(C)C)c1sccc1C(F)(F)F (centres unmarked) [Compound 926]
Log P (pH 2.7): 5.39^[a]

COC(=O)C(C#N)=C(NC(C)CCCC(C)C)c1sc(C)nc1C(F)(F)F (centres unmarked) [Compound 927]
Log P (pH 2.7): 4.78^[a]

CCOC(=O)C(C#N)=C(NC(C)CCCC(C)C)c1sccc1Br (centres unmarked) [Compound 928]
Log P (pH 2.7): 5.36^[a]

CCOC(=O)C(C#N)=C(NC(C)CCCC(C)C)c1sc(C)nc1C(F)(F)F (centres unmarked) [Compound 929]
Log P (pH 2.7): 5.14^[a]

CCOC(=O)C(C#N)=C(NC(C)CCCC(C)C)c1ccsc1Br (centres unmarked) [Compound 930]
Log P (pH 2.7): 5.32^[a]

COC(=O)C(C#N)=C(NC(C)C(C)C)c1cccnc1Cl (centres unmarked) [Compound 931]
Log P (pH 2.3): 3
Log P (pH 2.7): 2.76
Log P (pH 7.5): 2.83

COC(=O)C(C#N)=C(NC(C)C(C)C)c1cccnc1Cl (centres unmarked) [Compound 932]
Log P (pH 7.5): 2.85

CCOC(=O)C(C#N)=C(NC(C)C(C)C)c1cn(C)nc1C(F)F (centres unmarked) [Compound 933]
Log P (pH 2.7): 3.13^[a]

CCOC(=O)C(C#N)=C(NC(C)C(C)C)c1cccnc1Cl (centres unmarked) [Compound 934]
Log P (pH 7.5): 3.21

CCOC(=O)C(C#N)=C(NC(C)C(C)C)c1ncc(C(F)(F)F)cc1Cl (centres unmarked) [Compound 935]
Log P (pH 2.7): 4.29^[a]

CCOC(=O)C(C#N)=C(NC(C)C(C)C)c1c(C)nn(C)c1F (centres unmarked) [Compound 936]
Log P (pH 2.7): 3.19^[a]

CCOC(=O)C(C#N)=C(NC(C)C(C)C)c1nsc(Cl)c1Cl (centres unmarked) [Compound 937]
Log P (pH 2.7): 4.39^[a]

COC(=O)C(C#N)=C(NC(C)C(C)C)c1cn(C)nc1C(F)F (centres unmarked) [Compound 938]
Log P (pH 2.7): 2.8^[a]

CCOC(=O)C(C#N)=C(NC(C)C(C)C)c1cn(C)nc1C(F)(F)F (centres unmarked) [Compound 939]
Log P (pH 2.7): 3.64^[a]

CCOC(=O)C(C#N)=C(NC(C)C(C)C)c1conc1C (centres unmarked) [Compound 940]
Log P (pH 2.7): 3.15^[a]

CCOC(=O)C(C#N)=C(NC(C)C(C)C)c1sccc1Br (centres unmarked) [Compound 941]
Log P (pH 2.7): 4.12^[a]

COC(=O)C(C#N)=C(NC(C)C(C)C)c1cccnc1Br (centres unmarked) [Compound 942]
Log P (pH 2.3): 3.02
Log P (pH 7.5): 2.88

CCOC(=O)C(C#N)=C(NC(C)C(C)C)c1c(C)nn(C)c1Cl (centres unmarked) [Compound 943]
Log P (pH 2.7): 3.67^[a]

CCOC(=O)C(C#N)=C(NC(C)C(C)C)c1sccc1C(F)(F)F (centres unmarked) [Compound 944]
Log P (pH 2.7): 4.21^[a]

CCOC(=O)C(C#N)=C(NC(C)C(C)C)c1ccsc1Br (centres unmarked) [Compound 945]
Log P (pH 2.7): 4.1^[a]

CC(C)OC(=O)C(C#N)=C(NC(C)C(C)C)c1cccnc1Cl (centres unmarked) [Compound 946]
Log P (pH 7.5): 3.69

CCOC(=O)C(C#N)=C(NC(C)C(C)C)c1cc(C)oc1C (centres unmarked) [Compound 947]
Log P (pH 2.7): 3.99^[a]

COC(=O)C(C#N)=C(NC(C)C(C)C)c1sc(C)nc1C(F)(F)F (centres unmarked) [Compound 948]
Log P (pH 2.7): 3.63^[a]

CCOC(=O)C(C#N)=C(NC(C)C(C)C)c1sc(C)nc1C(F)(F)F (centres unmarked) [Compound 949]
Log P (pH 2.7): 3.95^[a]

CCOC(=O)C(C#N)=C(NC(C)C(C)C)c1ccc(C)nc1Cl (centres unmarked) [Compound 950]
Log P (pH 7.5): 3.63

CCOC(=O)C(C#N)=C(NC(C)C(C)C)c1sccc1Cl (centres unmarked) [Compound 951]
Log P (pH 2.7): 4.08^[a]

CCOC(=O)C(C#N)=C(NC(C)C(C)C)c1cccnc1Cl (centres unmarked) [Compound 952]
Log P (pH 2.7): 3.37
Log P (pH 7.5): 3.33

CCOC(=O)C(C#N)=C(NC(C)C(C)C)c1cccnc1C (centres unmarked) [Compound 953]
Log P (pH 2.3): 2.63
Log P (pH 7.5): 2.89

CCOC(=O)C(C#N)=C(NC(C)C(C)C)c1c(C(F)F)nn(C)c1Cl (centres unmarked) [Compound 954]
Log P (pH 2.7): 3.63^[a]

C=CCOC(=O)C(C#N)=C(NC(C)C(C)C)c1cccnc1Cl (centres unmarked) [Compound 955]
Log P (pH 2.7): 3.55
Log P (pH 7.5): 3.49

CC(C)C(C)NC(=C(C#N)C(=O)O)c1cccnc1Cl (centres unmarked) [Compound 956]
Log P (pH 2.7): 2.2^[a]

CCNC(=O)C(C#N)=C(NC(C)C(C)C)c1cccnc1Cl (centres unmarked) [Compound 958]
Log P (pH 2.7): 2.94

CONC(=O)C(C#N)=C(NC(C)C(C)C)c1cccnc1Cl (centres unmarked) [Compound 960]
Log P (pH 2.3): 2.31
Log P (pH 7.5): 2.26

CCOC(=O)C(C#N)=C(NC(C)C(C)C)c1cccnc1OC (centres unmarked) [Compound 961]
Log P (pH 2.3): 3.52^[c]; 3.52^[b]
Log P (pH 7.5): 3.52^[c]; 3.52^[b]

C=CCOC(=O)C(C#N)=C(NC(C)C(C)C)c1sccc1Br (centres unmarked) [Compound 962]
Log P (pH 2.7): 4.34^[a]

CC(C)C(C)NC(=C(C#N)C(=O)O)c1sccc1Br (centres unmarked) [Compound 964]
Log P (pH 2.7): 2.74^[a]

CCOC(=O)C(C#N)=C(NC(C)C(C)C)c1cc(Cl)sc1Cl (centres unmarked) [Compound 965]
Log P (pH 2.7): 4.72^[a]

CCOC(=O)C(C#N)=C(NC(C)C(C)C)c1nc(Cl)ccc1Cl (centres unmarked) [Compound 966]
Log P (pH 2.7): 4.06^[a]

CCOC(=O)C(C#N)=C(NC(C)C(C)C)c1ncc(Cl)cc1Cl (centres unmarked) [Compound 967]
Log P (pH 2.7): 4.19^[a]

CCOC(=O)C(C#N)=C(NC(C)C(C)C)c1cnc(Cl)cc1Cl (centres unmarked) [Compound 968]
Log P (pH 2.7): 3.96^[a]

CCOC(=O)C(C#N)=C(NC(C)C(C)C)c1cn(C)nc1OC (centres unmarked) [Compound 969]
Log P (pH 2.7): 3.06^[a]

CCOC(=O)C(C#N)=C(NC(C)C(C)C)c1cccnc1C(F)(F)F (centres unmarked) [Compound 970]
Log P (pH 2.7): 3.62^[a]

C=Cc1nn(C)cc1C(NC(C)C(C)C)=C(C#N)C(=O)OCC (centres unmarked) [Compound 971]
Log P (pH 2.7): 3.06^[a]

CCOC(=O)C(C#N)=C(NC(C)C(C)C)c1nc(SC)ncc1Br (centres unmarked) [Compound 972]
Log P (pH 2.7): 4.26^[a]

CCOC(=O)C(C#N)=C(NC(C)C(C)C)c1sc(Cl)nc1Cl (centres unmarked) [Compound 973]
Log P (pH 2.7): 4.23^[a]

CCOC(=O)C(C#N)=C(NC(C)C(C)C)c1cccnc1-c1ccc(Cl)cc1 (centres unmarked) [Compound 974]
Log P (pH 2.3): 4.09
Log P (pH 7.5): 4.08

CCOC(=O)C(C#N)=C(NC(C)C(C)C)c1cccnc1-c1cc(Cl)cc(Cl)c1 (centres unmarked) [Compound 975]
Log P (pH 2.3): 4.68
Log P (pH 7.5): 4.67

C=Cc1ncccc1C(NC(C)C(C)C)=C(C#N)C(=O)OCC (centres unmarked) [Compound 976]
Log P (pH 2.3): 3.24
Log P (pH 7.5): 3.26

CCOC(=O)C(C#N)=C(NC(C)C(C)C)c1cc(Cl)ncc1Cl (centres unmarked) [Compound 977]
Log P (pH 2.7): 3.96^[a]

CCOC(=O)C(C#N)=C(NC(C)C(C)C)c1ccncc1Cl (centres unmarked) [Compound 978]
Log P (pH 2.7): 3.29^[a]

CCOC(=O)C(C#N)=C(NC(C)C(C)C)c1cccnc1C(C)=O (centres unmarked) [Compound 980]
Log P (pH 2.3): 3.11
Log P (pH 7.5): 3.08

CCOC(=O)C(C#N)=C(NC(C)C(C)C)c1cccnc1C(F)F (centres unmarked) [Compound 981]
Log P (pH 2.7): 3.15^[a]

CCOC(=O)C(C#N)=C(NC(C)C(C)C)c1cnccc1C(F)(F)F (centres unmarked) [Compound 982]
Log P (pH 2.7): 3.5^[a]

CCOC(=O)C(C#N)=C(NC(C)C(C)C)c1cc(Cl)cc(Cl)n1 (centres unmarked) [Compound 983]
Log P (pH 2.7): 4.26^[a]

CCOC(=O)C(C#N)=C(NC(C)C(C)C)c1cccnc1Cl (centres unmarked) [Compound 984]
Log P (pH 2.3): 3.22
Log P (pH 2.7): 3.33
Log P (pH 7.5): 3.22

CCOC(=O)C(C#N)=C(NC(C)C(C)C)c1cccnc1C(C)=NO (centres unmarked) [Compound 985]
Log P (pH 2.3): 2.69
Log P (pH 7.5): 2.67

CCOC(=O)C(C#N)=C(NC(C)C(C)C)c1ccc(Cl)nc1Cl (centres unmarked) [Compound 986]
Log P (pH 2.3): 3.85^[c]; 3.85^[b]
Log P (pH 7.5): 3.85^[c]; 3.85^[b]

CCCNC(=O)C(C#N)=C(NC(C)C(C)C)c1cccnc1Cl (centres unmarked) [Compound 988]
Log P (pH 2.3): 3.24
Log P (pH 7.5): 3.22

CNC(=O)C(C#N)=C(NC(C)C(C)C)c1cccnc1Cl (centres unmarked) [Compound 989]
Log P (pH 2.3): 2.41^[c]; 2.41^[b]
Log P (pH 7.5): 2.41^[c]; 2.41^[b]

CC(C)C(C)NC(=C(C#N)C(=O)On1nnc2ccccc21)c1cccnc1Cl (centres unmarked) [Compound 990]
Log P (pH 2.3): 3.22
Log P (pH 7.5): 3.21

C#CCNC(=O)C(C#N)=C(NC(C)C(C)C)c1cccnc1Cl (centres unmarked) [Compound 991]
Log P (pH 2.3): 2.69
Log P (pH 7.5): 2.68

CC(C)C(C)NC(=C(C#N)C(=O)NCC(F)(F)F)c1cccnc1Cl (centres unmarked) [Compound 992]
Log P (pH 2.3): 3.17
Log P (pH 7.5): 3.16

CC(C)C(C)NC(=C(C#N)C(N)=O)c1cccnc1Cl (centres unmarked) [Compound 993]
Log P (pH 2.3): 1.97
Log P (pH 7.5): 1.96

CCOC(=O)C(C#N)=C(NC(C)C(C)C)c1ccnc(Cl)c1Cl (centres unmarked) [Compound 994]
Log P (pH 2.7): 3.92^[a]

CCOC(=O)C(C#N)=C(NC(C)C(C)C)c1ccncc1Br (centres unmarked) [Compound 996]
Log P (pH 2.7): 3.33^[a]

CCOC(=O)C(C#N)=C(NC(C)C(C)C)c1ccncc1F (centres unmarked) [Compound 997]
Log P (pH 2.7): 3.08^[a]

C=CCOC(=O)C(C#N)=C(NC(C)C(C)C)c1cn(C)nc1C(F)F (centres unmarked) [Compound 998]
Log P (pH 2.7): 3.31^[a]

CCOC(=O)C(C#N)=C(NC(C)C(C)C)c1c(C(F)(F)F)nn(C)c1F (centres unmarked) [Compound 999]
Log P (pH 2.7): 3.93^[a]

CCOC(=O)C(C#N)=C(NC(C)C(C)C)c1cn(C)nc1C(F)F (centres unmarked) [Compound 1003]
Log P (pH 2.7): 3.15^[a]

COCCNC(=O)C(C#N)=C(NC(C)C(C)C)c1cn(C)nc1C(F)F (centres unmarked) [Compound 1005]
Log P (pH 2.7): 2.59^[a]

CC(C)C(C)NC(=C(C#N)C(=O)NC1CC1)c1cn(C)nc1C(F)F (centres unmarked) [Compound 1006]
Log P (pH 2.7): 2.66^[a]

C=CCNC(=O)C(C#N)=C(NC(C)C(C)C)c1cn(C)nc1C(F)F (centres unmarked) [Compound 1007]
Log P (pH 2.7): 2.9^[a]

C=CCNC(=O)C(C#N)=C(NC(C)C(C)C)c1cn(C)nc1C(F)F (centres unmarked) [Compound 1008]
Log P (pH 2.7): 2.68^[a]

COC(=O)C(C#N)=C(NC1(C)CCCCC1)c1cccnc1Cl [Compound 1009]
Log P (pH 2.7): 3.13^[a]

COC(=O)C(C#N)=C(NC(C)(C)C#N)c1sc(C)nc1C(F)(F)F [Compound 1010]
Log P (pH 2.7): 3.04^[a]

CCOC(=O)C(C#N)=C(NC(C)(C)C#N)c1nc(Cl)ccc1Cl [Compound 1011]
Log P (pH 2.7): 2.98^[a]

C=CCCCC(C=C)NC(=C(C#N)C(=O)OC)c1sc(C)nc1C(F)(F)F (centres unmarked) [Compound 1019]
Log P (pH 2.7): 4.19^[a]

C=CCCCC(C=C)NC(=C(C#N)C(=O)OCC)c1conc1C (centres unmarked) [Compound 1020]
Log P (pH 2.7): 3.81^[a]

C=CCCCC(C=C)NC(=C(C#N)C(=O)OCC)c1cn(C)nc1C(F)(F)F (centres unmarked) [Compound 1021]
Log P (pH 2.7): 4.14^[a]

C=CCCCC(C=C)NC(=C(C#N)C(=O)OCC)c1sc(C)nc1C(F)(F)F (centres unmarked) [Compound 1022]
Log P (pH 2.7): 4.49^[a]
